Test results: patent US10842892B2, “Methods and apparatus for synthesizing imaging agents, and intermediates thereof” (Lantheus Medical Imaging, Inc., priority 2010, dated 2020)

Assays:
[1] = tested on: coronary artery disease (CAD); assay: Phase 2 diagnostic performance for coronary artery disease, PET versus SPECT; format: in vivo, human
Source text: 143 patients (Pts) from 21 centers, presenting with a broad spectrum of CAD pre-test likelihoods, underwent rest-stress Tc-99m labeled SPECT MPI and imaging agent 1 PET MPI. […] Their mean age was 64.5 (range: 36-85) years and 68 were males. % narrowing in each coronary artery was quantified blindly. 52/84 Pts had significant CAD (≥50% luminal diameter narrowing) and 32/84 had insignificant CAD/normal coronary arteries. In each patient, 17 myocardial segments were visually scored on rest and stress images by 3 independent, blinded readers and majority rule interpretation was determined in each patient for both PET and SPECT studies. Diagnostic performance of PET was compared to that of SPECT using ROC analysis.

myocardial ischemia = assay: imaging agent 1 and ^82Rb PET versus ^99mTc sestamibi SPECT, perfusion defect assessment (phase II); format: in vivo, human
Procedure: Twenty-six patients (20 men) who underwent ^99mTc sestamibi SPECT and imaging agent 1 PET within 6 months at a single center in a phase II clinical trial were compared to 23 patients (matched by summed difference score (SDS) on SPECT) who underwent ^99mTc sestamibi SPECT and ^82Rb PET (25-50 mCi) within 6 months without change in clinical state. PET was performed with imaging agent 1 at rest (2.3-3.9 mCi) followed 60 min or 24 h later with exercise or adenosine stress (7.3-8.6 mCi). Perfusion defects on SPECT and PET were assessed by computer-assisted visual interpretation, using the standard 17 segment, 5 point-scoring model (0=normal; 4=absent uptake). The extent and severity of ischemia (SDS) was derived from the difference between summed stress score (SSS) and summed rest scores (SRS).
Twenty six patients (20 men) underwent SPECT and PET within 6-months. PET was performed with imaging agent 1 at rest (2.3-3.9 mCi) followed 60 min (n=18) or 24 h (n=8) later with exercise (n=16) or adenosine (n=10) stress (7.3-8.6 mCi). Image quality of SPECT and PET was consensually assessed by 2 independent blinded readers and graded as excellent, good, or fair. Stress and rest perfusion defects on SPECT and PET were assessed by the same readers by computer-assisted visual interpretation, using the standard 17 segment, 5 point-scoring model (0=normal; 4=absent uptake). The extent and severity of ischemia (summed difference score (SDS)) was derived from the difference between summed stress (SSS) and summed rest scores (SRS). Image quality with PET was excellent in 24 and good in 2 patients. In contrast, there were 7 excellent, 18 good, and 1 fair quality study, p<0.001 by SPECT. In 14 patients with abnormal SPECT (SSS≥4), mean SDS was greater with PET than with SPECT (9.6±1.8 vs. 5.4±0.7, p=0.02). In all 12 patients with normal SPECT (SSS<4), SDS was zero by PET and SPECT.

[2] = tested on: chronic myocardial infarct (MI); assay: cardiac PET imaging in control and chronic myocardial infarct rabbits; format: in vivo; settings: MI rabbit, images 20-30 min after injection
Source text: Male New Zealand rabbits (body weight 2.5-3.5 kg) were purchased from Harlan (Oakwood, Mich.) and maintained in the AAALAC-accredited Animal Care Facility at Lantheus Medical Imaging. The study protocol was approved by the Institutional Animal Care and Use Committee. The procedure of developing a rabbit model of myocardial infarction (MI) was similar to the method described previously (Fujita M, Morimoto Y, Ishihara M, Shimizu M, Takase B, Maehara T et al. A new rabbit model of myocardial infarction without endotracheal intubation. J Surg Res 2004; 116:124-8). Briefly, the rabbit was anesthetized with ketamine (40 mg/Kg, im) and xylazine (9 mg/Kg, im) and placed in a supine position. The surgery was performed under aseptic conditions. A mid-sternotomy was performed carefully to avoid injury of parietal pleura. The pericardial sac was exposed and incised. […]
PET images and cardiovascular parameters were evaluated in both normal and MI rabbits. […] In addition, electrocardiogram (ECG) was also recorded with 3 non-invasive limb leads in lead II configuration using the BIOPAC system. […] After a stabilization period, cardiovascular parameters: MAP, SBP, DBP and ECG, were recorded 5 minutes before imaging agent 1 intravenous injection (˜1.5 mCi) and the recording continued for additional 20 minutes post-injection. […]

[3] = tested on: stress induced myocardial perfusion abnormalities; assay: rest-stress imaging agent 1 PET versus Tc-99m Sestamibi SPECT MPI, single center; format: in vivo, human; settings: myocardial segments supplied by diseased coronary arteries, 13 patients
Procedure: Thirteen patients, from a single center, underwent rest-stress Tc-99m Sestamibi SPECT MPI, rest-stress imaging agent 1 PET MPI and coronary angiography. In each patient, 17 myocardial segments were visually scored for rest and stress images by independent observers who were blinded to all other results. For each patient, summed stress scores (SSS), summed rest scores (SRS), and summed difference scores (SDS) were determined from segmental scores. Percent narrowing in each coronary artery was evaluated blindly and 70% luminal diameter narrowing was considered significant.

Q: For CC(C)(C)n1ncc(OCc2ccc(COCC[18F])cc2)c(Cl)c1=O [imaging agent 1, 2-t-butyl-4-chloro-5-[4-(2-(^18F)fluoroethoxymethyl)-benzyloxy]-2H-pyridazin-3-1], which “Diagnostic certainty of interpretation (% of cases with definitely abnormal/normal interpretation)” value ([1]; in vivo) is on record?
A: 92.0%

Q: What about the “area under the ROC curve for overall diagnosis of CAD” value ([1]; in vivo) of the same molecule?
A: 0.79±0.05

Q: What about the “% of images rated as either excellent or good” value ([1]; rest images) of the same molecule?
A: 96.8%

Q: And the “% of images rated as either excellent or good” value ([1]; stress images)?
A: 99.2%

Q: What about the SDS (myocardial ischemia; 12 patients with normal SPECT (SSS<4)) of the same molecule?
A: zero

Q: And the “mean SDS (summed difference score)” value (myocardial ischemia; 14 patients with abnormal SPECT (SSS≥4))?
A: 9.6±1.8

Q: And the “image quality excellent, number of patients” value (myocardial ischemia; 26 patients, 2 blinded readers)?
A: 24

Q: And the “image quality good, number of patients” value (myocardial ischemia; 26 patients, 2 blinded readers)?
A: 2

Q: What about the “differences in SDS, PET compared to SPECT” value (myocardial ischemia; patients with normal SPECT (SSS<4)) of the same molecule?
A: no differences

Q: And the “perfusion defect area in the left ventricular wall” value [2]?
A: clearly detected

Q: And the SDS [3]?
A: 12.3 ± 7

Q: What about the SRS [3] of the same molecule?
A: 3.8 ± 6.6

Q: And the SSS [3]?
A: 16.1 ± 7.8
